Source: patent US20250388604A1, “Compounds and Their Use as PDE4 Activators” (Mironid Limited, priority 2022, published 2025)

Each compound was assayed on m-IMCD3 cells (assay: Inhibition of PGE2-stimulated in vitro cyst formation in m-IMCD3 cells). Details: Mus musculus, mIMCD3, 144 h, 3 μM; mean cyst area, 100% for (DMSO + PGE2) and 0% for DMSO control; 6 days of culture; read-out: % Cyst area after incubation with 3 μM test compound.
Assay type: cell-based, mouse
Outline: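 Mean cyst area after 6 days, expressed relative to DMSO+PGE2 (100%) and DMSO alone (0%), from z-stack images. Mouse m-IMCD3 spheroids grew in collagen I/Matrigel gels and received PGE2 (100 nM final) with test compound (0.1% DMSO) starting 18–24 h post-plating, media refreshed at day 2 or 3.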

Question: `COC(C(=O)N1CCc2nc(N3C4CCC3CNC4)sc2C1)C1CCCC1` (stereo not drawn) [Example 157, 1-(2-(3,8-diazabicyclo[3.2.1]octan-8-yl)-6,7-dihydrothiazolo[5,4-c]pyridin-5(4H)-yl)-2-cyclopentyl-2-methoxyethan-1-one] was tested. Which activity at 3 µM did it give?
Answer: Its activity at 3 µM is 17%.

Question: Which activity at 3 µM does the source give for `O=C(CC12CCC(CC1)C2)N1CCc2nc(N3C4CCC3CNC4)sc2C1` [Example 160, 1-(2-(3,8-diazabicyclo[3.2.1]octan-8-yl)-6,7-dihydrothiazolo[5,4-c]pyridin-5(4H)-yl)-2-(bicyclo[2.2.1]heptan-1-yl)ethan-1-one] here?
Answer: Its activity at 3 µM is -2%.

Question: How did the activity at 3 µM turn out when `CC(C)C(C)(C)C(=O)N1CCc2nc(N3C4CCC3CNC4)sc2C1` [Example 161, 1-(2-(3,8-diazabicyclo[3.2.1]octan-8-yl)-6,7-dihydrothiazolo[5,4-c]pyridin-5(4H)-yl)-2,2,3-trimethylbutan-1-one] was run?
Answer: Its activity at 3 µM is -3%.

Question: With `O=C(C1CC12CCCC2)N1CCc2nc(N3C4CCC3CNC4)sc2C1` (stereo not drawn) [Example 162, (2-(3,8-diazabicyclo[3.2.1]octan-8-yl)-6,7-dihydrothiazolo[5,4-c]pyridin-5(4H)-yl)(spiro[2.4]heptan-1-yl)methanone] as the compound, how does the activity at 3 µM read?
Answer: The activity at 3 µM was 14%.

Question: `O=C(COc1ccccc1OC(F)(F)F)N1CCc2nc(N3C4CCC3CNC4)sc2C1` [Example 164, 1-(2-(3,8-diazabicyclo[3.2.1]octan-8-yl)-6,7-dihydrothiazolo[5,4-c]pyridin-5(4H)-yl)-2-(2-(trifluoromethoxy)phenoxy)ethan-1-one] was tested. Which activity at 3 µM did it give?
Answer: The activity at 3 µM was -7%.

Question: How did the activity at 3 µM turn out when `O=C(Cc1ccc(F)nc1)N1CCc2nc(N3C4CCC3CNC4)sc2C1` [Example 165, 1-(2-(3,8-diazabicyclo[3.2.1]octan-8-yl)-6,7-dihydrothiazolo[5,4-c]pyridin-5(4H)-yl)-2-(6-fluoropyridin-3-yl)ethan-1-one] was run?
Answer: The activity at 3 µM was 2%.

Question: For `N#Cc1ccccc1OCC(=O)N1CCc2nc(N3C4CCC3CNC4)sc2C1` [Example 167, 2-(2-(2-(3,8-diazabicyclo[3.2.1]octan-8-yl)-6,7-dihydrothiazolo[5,4-c]pyridin-5(4H)-yl)-2-oxoethoxy)benzonitrile], which activity at 3 µM is on record?
Answer: Its activity at 3 µM is 19%.

Question: How did the activity at 3 µM turn out when `COc1cccc(C#N)c1OCC(=O)N1CCc2nc(N3C4CCC3CNC4)sc2C1` [Example 168, 2-(2-(2-(3,8-diazabicyclo[3.2.1]octan-8-yl)-6,7-dihydrothiazolo[5,4-c]pyridin-5(4H)-yl)-2-oxoethoxy)-3-methoxybenzonitrile] was run?
Answer: The activity at 3 µM was -3%.

Same assay, conditions: Mus musculus, mIMCD3, 144 h, 10 μM; mean cyst area, 100% for (DMSO + PGE2) and 0% for DMSO control; 6 days of culture; read-out: % Cyst area after incubation with 10 μM test compound

Question: Which activity at 10 µM does the source give for `O=C(Cc1ccnc(F)c1)N1CCc2nc(N3C4CCC3CNC4)sc2C1` [Example 141, 1-(2-(3,8-diazabicyclo[3.2.1]octan-8-yl)-6,7-dihydrothiazolo[5,4-c]pyridin-5(4H)-yl)-2-(2-fluoropyridin-4-yl)ethan-1-one] here?
Answer: The activity at 10 µM was -7%.

Question: With `O=C(CCc1ccc(F)nc1)N1CCc2nc(N3C4CCC3CNC4)sc2C1` [Example 142, 1-(2-(3,8-diazabicyclo[3.2.1]octan-8-yl)-6,7-dihydrothiazolo[5,4-c]pyridin-5(4H)-yl)-3-(6-fluoropyridin-3-yl)propan-1-one] as the compound, how does the activity at 10 µM read?
Answer: Its activity at 10 µM is -4%.

Question: Which activity at 10 µM does the source give for `COc1cc(F)ccc1OCC(=O)N1CCc2nc(N3C4CCC3CNC4)sc2C1` [Example 143, 1-(2-(3,8-diazabicyclo[3.2.1]octan-8-yl)-6,7-dihydrothiazolo[5,4-c]pyridin-5(4H)-yl)-2-(4-fluoro-2-methoxyphenoxy)ethan-1-one] here?
Answer: Its activity at 10 µM is 2%.

Question: Which activity at 10 µM does the source give for `O=C(Cc1ccc(F)cc1F)N1CCc2nc(N3C4CCC3CNC4)sc2C1` [Example 144, 1-(2-(3,8-diazabicyclo[3.2.1]octan-8-yl)-6,7-dihydrothiazolo[5,4-c]pyridin-5(4H)-yl)-2-(2,4-difluorophenyl)ethan-1-one] here?
Answer: Its activity at 10 µM is 13%.

Question: With `Cc1cc(F)ccc1OCC(=O)N1CCc2nc(N3C4CCC3CNC4)sc2C1` [Example 145, 1-(2-(3,8-diazabicyclo[3.2.1]octan-8-yl)-6,7-dihydrothiazolo[5,4-c]pyridin-5(4H)-yl)-2-(4-fluoro-2-methylphenoxy)ethan-1-one] as the compound, how does the activity at 10 µM read?
Answer: The activity at 10 µM was 17%.

Question: `CC(C)(C(=O)N1CCc2nc(N3C4CCC3CNC4)sc2C1)C1CCCC1` [Example 146, 1-(2-(3,8-diazabicyclo[3.2.1]octan-8-yl)-6,7-dihydrothiazolo[5,4-c]pyridin-5(4H)-yl)-2-cyclopentyl-2-methylpropan-1-one] was tested. Which activity at 10 µM did it give?
Answer: The activity at 10 µM was 16%.

Question: With `COc1cc(F)ccc1CCC(=O)N1CCc2nc(N3C4CCC3CNC4)sc2C1` [Example 147, 1-(2-(3,8-diazabicyclo[3.2.1]octan-8-yl)-6,7-dihydrothiazolo[5,4-c]pyridin-5(4H)-yl)-3-(4-fluoro-2-methoxyphenyl)propan-1-one] as the compound, how does the activity at 10 µM read?
Answer: The activity at 10 µM was 9%.

Question: `O=C(COc1ccc(F)cc1F)N1CCc2nc(N3C4CCC3CNC4)sc2C1` [Example 148, 1-(2-(3,8-diazabicyclo[3.2.1]octan-8-yl)-6,7-dihydrothiazolo[5,4-c]pyridin-5(4H)-yl)-2-(2,4-difluorophenoxy)ethan-1-one] was tested. Which activity at 10 µM did it give?
Answer: The activity at 10 µM was 3%.

Question: For `O=C(COC1CCCC1)N1CCc2nc(N3C4CCC3CNC4)sc2C1` [Example 149, 1-(2-(3,8-diazabicyclo[3.2.1]octan-8-yl)-6,7-dihydrothiazolo[5,4-c]pyridin-5(4H)-yl)-2-(cyclopentyloxy)ethan-1-one], which activity at 10 µM is on record?
Answer: The activity at 10 µM was -2%.

Question: For `CC1(C(=O)N2CCc3nc(N4C5CCC4CNC5)sc3C2)CCCC1` [Example 150, (2-(3,8-diazabicyclo[3.2.1]octan-8-yl)-6,7-dihydrothiazolo[5,4-c]pyridin-5(4H)-yl)(1-methylcyclopentyl)methanone], which activity at 10 µM is on record?
Answer: Its activity at 10 µM is 1%.

Question: For `O=C(N1CCc2nc(N3C4CCC3CNC4)sc2C1)C1(F)CCCC1` [Example 151, (2-(3,8-diazabicyclo[3.2.1]octan-8-yl)-6,7-dihydrothiazolo[5,4-c]pyridin-5(4H)-yl)(1-fluorocyclopentyl)methanone], which activity at 10 µM is on record?
Answer: The activity at 10 µM was 5%.

Question: Which activity at 10 µM does the source give for `N#CC(C(=O)N1CCc2nc(N3C4CCC3CNC4)sc2C1)C1CCCC1` (stereo not drawn) [Example 152, 3-(2-(3,8-diazabicyclo[3.2.1]octan-8-yl)-6,7-dihydrothiazolo[5,4-c]pyridin-5(4H)-yl)-2-cyclopentyl-3-oxopropanenitrile] here?
Answer: The activity at 10 µM was 4%.

Question: For `Cc1cc(CC(=O)N2CCc3nc(N4C5CCC4CNC5)sc3C2)cc(C)n1` [Example 153, 1-(2-(3,8-diazabicyclo[3.2.1]octan-8-yl)-6,7-dihydrothiazolo[5,4-c]pyridin-5(4H)-yl)-2-(2,6-dimethylpyridin-4-yl)ethan-1-one], which activity at 10 µM is on record?
Answer: The activity at 10 µM was 31%.

Question: `CCC(C)(C)C(=O)N1CCc2nc(N3C4CCC3CNC4)sc2C1` [Example 154, 1-(2-(3,8-diazabicyclo[3.2.1]octan-8-yl)-6,7-dihydrothiazolo[5,4-c]pyridin-5(4H)-yl)-2,2-dimethylbutan-1-one] was tested. Which activity at 10 µM did it give?
Answer: The activity at 10 µM was -13%.

Question: Which activity at 10 µM does the source give for `O=C(CC1CCC2(CC1)COC2)N1CCc2nc(N3C4CCC3CNC4)sc2C1` [Example 155, 1-(2-(3,8-diazabicyclo[3.2.1]octan-8-yl)-6,7-dihydrothiazolo[5,4-c]pyridin-5(4H)-yl)-2-(2-oxaspiro[3.5]nonan-7-yl)ethan-1-one] here?
Answer: The activity at 10 µM was -3%.

Question: How did the activity at 10 µM turn out when `Cc1cc(F)ccc1CC(=O)N1CCc2nc(N3C4CCC3CNC4)sc2C1` [Example 156, 1-(2-(3,8-diazabicyclo[3.2.1]octan-8-yl)-6,7-dihydrothiazolo[5,4-c]pyridin-5(4H)-yl)-2-(4-fluoro-2-methylphenyl)ethan-1-one] was run?
Answer: Its activity at 10 µM is 0%.
